One block for each molecule: values may come before it.
Assays:
[1] = target: P-glycoprotein (ABCB1) (Homo sapiens, UniProt P08183); test: Substrate activity at p-glycoprotein (unknown origin) assessed as efflux ratio; conditions: not told
[2] = target: T1, Beta-secretase 1 (Homo sapiens, UniProt P56817); test: Inhibition of BACE1 (unknown origin)
[3] = target: T2, Beta-secretase 2 (Homo sapiens, UniProt Q9Y5Z0); test: Inhibition of BACE2 (unknown origin)
T2 sequence (Q9Y5Z0 whole entry): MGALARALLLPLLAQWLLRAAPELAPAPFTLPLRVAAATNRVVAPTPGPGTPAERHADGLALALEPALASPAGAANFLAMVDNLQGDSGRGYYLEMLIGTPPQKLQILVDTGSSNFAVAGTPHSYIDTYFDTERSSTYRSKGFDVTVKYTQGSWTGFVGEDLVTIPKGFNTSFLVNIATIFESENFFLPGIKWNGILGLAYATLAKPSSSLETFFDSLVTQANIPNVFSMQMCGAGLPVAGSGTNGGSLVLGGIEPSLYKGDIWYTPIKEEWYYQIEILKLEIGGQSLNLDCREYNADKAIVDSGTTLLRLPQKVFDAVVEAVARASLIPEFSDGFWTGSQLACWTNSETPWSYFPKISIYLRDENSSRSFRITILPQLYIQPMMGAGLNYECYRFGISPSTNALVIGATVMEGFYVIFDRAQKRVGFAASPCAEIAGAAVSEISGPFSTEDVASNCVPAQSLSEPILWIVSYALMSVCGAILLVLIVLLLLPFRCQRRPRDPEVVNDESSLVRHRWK

[4] = target: T1, Beta-secretase 1; test: Inhibition of BACE1 (unknown origin) by cell-based assay
[5] = target: T1, Beta-secretase 1; test: Inhibition of BACE1 in HEK293 cells harboring APP assessed as reduction in amyloidbeta 40 level incubated for 18 to 20 hrs by AlphaLISA Assay; assay type: cell-based
[6] = target: Beta-secretase 1 (Rattus norvegicus, UniProt P56819); test: Inhibition of BACE1 in Wistar rat neuronal cell suspension after 1 to 3 days by ELISA
Sequence of Beta-secretase 1 (Rattus norvegicus, UniProt P56819) (P56819 whole entry): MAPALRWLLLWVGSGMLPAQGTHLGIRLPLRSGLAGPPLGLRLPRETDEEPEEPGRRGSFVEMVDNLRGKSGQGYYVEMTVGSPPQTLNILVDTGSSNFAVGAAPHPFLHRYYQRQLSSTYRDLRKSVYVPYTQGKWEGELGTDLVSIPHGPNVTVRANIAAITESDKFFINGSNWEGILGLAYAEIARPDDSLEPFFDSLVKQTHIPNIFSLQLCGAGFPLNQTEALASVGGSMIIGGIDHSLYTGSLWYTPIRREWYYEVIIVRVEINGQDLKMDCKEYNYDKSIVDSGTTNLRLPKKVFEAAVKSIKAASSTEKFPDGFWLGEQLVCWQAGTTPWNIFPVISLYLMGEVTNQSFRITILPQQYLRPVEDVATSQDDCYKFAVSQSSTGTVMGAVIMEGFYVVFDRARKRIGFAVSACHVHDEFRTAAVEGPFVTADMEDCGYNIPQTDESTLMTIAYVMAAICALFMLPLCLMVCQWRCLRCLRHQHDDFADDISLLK

[7] = target: T1, Beta-secretase 1; test: Inhibition of human BACE1 expressed in Escherichia coli preincubated for 1 hr followed by Mca-Ser-Glu-Val-Asn-Leu-Asp-Ala-Glu-Phe-Lys(Dnp)-OH substrate addition by spectroflurimetric assay
[8] = Dissociation constant, pKa of the compound; assay type: physicochemical
[9] = target: T1, Beta-secretase 1; test: Inhibition of BACE1 in human SH-SY5Y cells expressing betaAPP assessed as reduction in amyloidbeta (1 to 40 residues) level incubated for 24 hrs by HTRF assay; assay type: cell-based
[10] = target: T1, Beta-secretase 1; test: Inhibition of human BACE1 using Biotin-XSEVNLDAEFRHDSGC as substrate incubated for 2 hrs by fluorescence method
[11] = target: T1, Beta-secretase 1; test: Inhibition of human BACE1 catalytic domain preincubated for 30 mins followed by QSY7-EISEVNLDAEFC-Europium-amide substrate addition and measured after […] by HTRF assay
[12] = target: T2, Beta-secretase 2; test: Inhibition of human BACE2 preincubated for 30 mins followed by QSY7- EISEVNLDAEFC-Eu-amide substrate addition and measured after […] by HTRF assay
[13] = system: Mus musculus; test: In vivo inhibition of BACE1 in C57B1/6J mouse assessed as reduction in amyloidbeta 40 level in brain at 30 mg/kg, po measured at 4 hrs post dose by ELISA relative to control; assay type: functional
[14] = system: Rattus norvegicus; test: In vivo inhibition of BACE1 in Sprague Dawley rat assessed as reduction in amyloidbeta 40 level in brain at 30 mg/kg, po measured at 3 hrs post dose by ELISA relative to control; assay type: functional
[15] = system: Rattus norvegicus; test: In vivo inhibition of BACE1 in Sprague Dawley rat assessed as reduction in amyloidbeta 40 level in brain at 10 mg/kg, po measured at 3 hrs post dose by ELISA relative to control; assay type: functional
[16] = target: T1, Beta-secretase 1; test: Inhibition of BACE1 in human SK-N-BE(2) cells expressing human APP695 assessed as reduction in amyloidbeta level incubated for 18 hrs by sandwich ELISA; assay type: cell-based
[17] = target: T1, Beta-secretase 1; test: Inhibition of BACE1 (unknown origin) incubated for 120 mins using APP swedish mutant as substrate by FRET assay
[18] = target: T2, Beta-secretase 2; test: Inhibition of BACE2 (unknown origin) incubated for 450 mins using APP swedish mutant as substrate by FRET assay
[19] = target: T1, Beta-secretase 1; test: Inhibition of BACE1 in human SK-N-BE(2) cells expressing human APP695 assessed as reduction in amyloidbeta (1 to 42 residues) level incubated for 18 hrs by sandwich ELISA; assay type: cell-based
[20] = target: T1, Beta-secretase 1; test: Inhibition of human BACE1 using Biotin-XSEVNLDAEFRHDSGC as substrate incubated for […] by fluorescence method
[21] = target: T1, Beta-secretase 1; test: Inhibition of C-terminal His6-tagged human BACE1 expressed in mammalian expression system preincubated for 1 hr followed by substrate addition and measured after 1 hr by FRET assay
[22] = target: T2, Beta-secretase 2; test: Inhibition of C-terminal His6-tagged human BACE2 expressed in mammalian expression system preincubated for 1 hr followed by substrate addition and measured after 1 hr by FRET assay
[23] = target: T1, Beta-secretase 1; test: Inhibition of BACE1 (unknown origin) assessed as reduction in amyloidbeta 40 level after 24 hrs by cell-based sandwich ELISA
[24] = target: T1, Beta-secretase 1; test: Inhibition of human BACE1 (1 to 460 residues) expressed in HEK293 cells after 16 to 24 hrs by FRET assay; assay type: cell-based
[25] = target: Cathepsin D (Homo sapiens, UniProt P07339); test: Inhibition of recombinant Cathepsin D (unknown origin) expressed in CHO cells preincubated for 1 hr followed by substrate addition and measured after 1 hr by FRET assay; assay type: cell-based
Sequence of Cathepsin D (P07339 65-162 limits assumed): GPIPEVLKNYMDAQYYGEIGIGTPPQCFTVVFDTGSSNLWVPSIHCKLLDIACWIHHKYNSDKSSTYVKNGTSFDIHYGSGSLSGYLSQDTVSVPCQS
Sequence of Cathepsin D (P07339 169-412 limits assumed): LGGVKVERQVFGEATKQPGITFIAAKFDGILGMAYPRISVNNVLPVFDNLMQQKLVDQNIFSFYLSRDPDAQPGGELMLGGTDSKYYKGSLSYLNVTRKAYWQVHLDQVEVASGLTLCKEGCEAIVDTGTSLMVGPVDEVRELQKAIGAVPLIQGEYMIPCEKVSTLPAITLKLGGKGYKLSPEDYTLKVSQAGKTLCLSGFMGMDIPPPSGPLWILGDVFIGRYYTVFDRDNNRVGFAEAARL

Sequence of P-glycoprotein (ABCB1) (P08183 whole entry): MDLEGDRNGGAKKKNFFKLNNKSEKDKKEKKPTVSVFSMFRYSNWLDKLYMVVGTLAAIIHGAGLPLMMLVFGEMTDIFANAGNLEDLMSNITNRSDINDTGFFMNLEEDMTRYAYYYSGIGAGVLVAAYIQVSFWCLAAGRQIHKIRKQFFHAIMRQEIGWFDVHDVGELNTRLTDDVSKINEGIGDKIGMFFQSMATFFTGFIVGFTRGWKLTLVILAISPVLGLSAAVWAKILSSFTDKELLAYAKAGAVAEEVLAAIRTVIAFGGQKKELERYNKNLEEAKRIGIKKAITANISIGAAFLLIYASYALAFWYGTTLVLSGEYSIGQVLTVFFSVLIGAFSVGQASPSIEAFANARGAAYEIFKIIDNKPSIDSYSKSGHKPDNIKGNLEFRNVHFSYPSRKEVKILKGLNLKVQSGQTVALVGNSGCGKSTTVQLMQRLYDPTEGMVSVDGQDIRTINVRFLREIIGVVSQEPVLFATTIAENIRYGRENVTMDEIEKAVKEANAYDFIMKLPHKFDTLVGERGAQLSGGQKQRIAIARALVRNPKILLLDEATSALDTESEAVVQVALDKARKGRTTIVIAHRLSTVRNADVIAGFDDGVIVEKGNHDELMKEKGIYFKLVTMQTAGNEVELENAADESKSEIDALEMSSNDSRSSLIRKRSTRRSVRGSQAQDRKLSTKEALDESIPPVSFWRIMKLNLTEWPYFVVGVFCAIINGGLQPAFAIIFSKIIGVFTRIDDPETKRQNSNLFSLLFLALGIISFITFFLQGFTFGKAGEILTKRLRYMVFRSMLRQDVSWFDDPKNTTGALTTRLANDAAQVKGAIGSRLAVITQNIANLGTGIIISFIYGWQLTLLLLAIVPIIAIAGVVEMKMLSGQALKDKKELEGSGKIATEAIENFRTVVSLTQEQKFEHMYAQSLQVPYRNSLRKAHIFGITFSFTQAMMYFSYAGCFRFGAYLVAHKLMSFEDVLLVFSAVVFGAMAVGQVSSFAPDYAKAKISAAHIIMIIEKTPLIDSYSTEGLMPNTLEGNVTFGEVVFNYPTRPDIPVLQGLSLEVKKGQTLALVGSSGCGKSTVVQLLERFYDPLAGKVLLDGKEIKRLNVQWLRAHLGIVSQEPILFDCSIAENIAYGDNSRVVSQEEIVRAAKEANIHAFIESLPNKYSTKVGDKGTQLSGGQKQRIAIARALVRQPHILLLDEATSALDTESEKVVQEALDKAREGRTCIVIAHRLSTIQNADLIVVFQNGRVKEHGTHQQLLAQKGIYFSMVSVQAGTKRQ
T1 sequence (P56817 whole entry): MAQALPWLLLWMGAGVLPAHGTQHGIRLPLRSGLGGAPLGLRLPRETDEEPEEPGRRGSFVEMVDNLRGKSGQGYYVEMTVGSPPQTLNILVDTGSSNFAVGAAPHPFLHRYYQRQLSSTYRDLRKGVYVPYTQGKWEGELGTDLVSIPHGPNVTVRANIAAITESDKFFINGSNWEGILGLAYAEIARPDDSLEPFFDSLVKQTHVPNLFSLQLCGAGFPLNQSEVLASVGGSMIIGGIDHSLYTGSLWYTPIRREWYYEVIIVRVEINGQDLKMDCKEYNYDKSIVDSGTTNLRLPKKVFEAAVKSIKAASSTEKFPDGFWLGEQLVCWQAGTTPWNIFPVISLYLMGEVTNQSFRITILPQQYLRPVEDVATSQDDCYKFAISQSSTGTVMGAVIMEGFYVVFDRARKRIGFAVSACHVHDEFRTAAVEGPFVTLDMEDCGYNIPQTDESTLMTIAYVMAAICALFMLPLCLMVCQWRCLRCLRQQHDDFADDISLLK

efflux ratio [1]: 1.6
IC50 [2]: 6.13 nM
IC50 [3]: 0.5 nM
Compound: CC(F)(F)[C@@H]1C[C@@](C)(c2cc(NC(=O)c3ccc(OCF)cn3)ccc2F)N=C(N)S1

IC50 [4]: 15.5 nM
IC50 [2]: 26.3 nM
IC50 [3]: 120 nM
Compound: N#Cc1ccc(C(=O)Nc2ccc(F)c([C@]34COC[C@H]3n3cccc3C(N)=N4)c2)nc1

IC50 [5]: 30 nM
Compound: C[C@@]1(c2cc(-c3cc(-c4cnc(C#N)cn4)no3)ccc2F)C[C@@H](C(F)(F)F)OC(N)=N1

IC50 [6]: 8 nM
Compound: COc1cnc(C(=O)Nc2ccc(F)c([C@]34CO[C@H](C(F)(F)F)[C@H]3CSC(N)=N4)c2)cn1

IC50 [7]: 1050 nM
pKa [8]: 11.1
Compound: C[C@@]1(c2cc(NC(=O)c3ccc(C#N)cn3)ccc2F)CCC(N)=N1

IC50 [5]: 9 nM
Compound: CC#CCOc1cnc(C2=Nc3cc([C@]4(C)C[C@@H](C(F)(F)F)OC(N)=N4)c(F)cc3CN2)cn1

IC50 [9]: 5.4 nM
IC50 [10]: 11.9 nM
Compound: C[C@H]1SC(N)=N[C@](C)(c2cc(NC(=O)c3cnc(F)cn3)ccc2F)C12CC(F)(F)C2

IC50 [6]: 4 nM
Compound: COc1cnc(C(=O)Nc2ccc(F)c([C@]34CO[C@H](C(F)F)[C@H]3CSC(N)=N4)c2)cn1

Ki [11]: 3 nM
Ki [12]: 1 nM
Compound: CN=[S@@]1(=O)C[C@@](C)(c2cc(NC(=O)c3ccc(Cl)cn3)ccc2F)N=C(N)C1(C)C

IC50 [9]: 0.615 nM
Compound: C[C@]1(c2cc(NC(=O)c3ccc(C#N)cn3)ccc2F)N=C(N)OCC12CC(F)(F)C2

Ki [11]: 6.1 nM
Ki [12]: 1.2 nM
Compound: CN1CC2(C1)C(=N)N[C@](C)(c1cc(NC(=O)c3ccc(Cl)cn3)ccc1F)CS2(=O)=O

efflux ratio [1]: 0.7
IC50 [2]: 5.67 nM
IC50 [3]: 1 nM
Compound: C[C@@]1(c2cc(NC(=O)c3ccc(OCF)cn3)ccc2F)C[C@@H](C(F)(F)F)SC(N)=N1

Compound: Cc1cc(C#N)cnc1C(=O)Nc1ccc(F)c([C@@]2(C)N=C(N)C(C)(C)[S@@]3(=O)=NCC[C@@H]23)c1
inhibition in vivo at 30 mg/kg [13]: 86%

Ki [11]: 1 nM
Ki [12]: 14 nM
Compound: CN1C(=N)N[C@]2(C)c3cc(NC(=O)c4ccc(C#N)cn4)ccc3OCC[C@H]2S1(=O)=O (relative stereo)

Ki [11]: 5 nM
Ki [12]: 1 nM
Compound: CN=S1(=O)C[C@@](C)(c2cc(NC(=O)c3ccc(Cl)cn3)ccc2F)N=C(N)N1C (single isomer, unassigned)

IC50 [4]: 0.95 nM
IC50 [2]: 3.5 nM
IC50 [3]: 15.8 nM
Compound: C[C@@]1(c2cc(NC(=O)c3ccc(C#N)cc3)ccc2F)Cn2cnc(C(F)F)c2C(N)=N1

Compound: COc1ccc(C(=O)Nc2ccc(F)c([C@]34COC[C@@]3(F)C[C@](C)(F)C(N)=N4)c2)nc1
inhibition in vivo at 30 mg/kg [14]: 64%
inhibition in vivo at 10 mg/kg [15]: 48%

IC50 [9]: 1.2 nM
IC50 [10]: 4.77 nM
Compound: C[C@H]1SC(N)=N[C@](C)(c2cc(NC(=O)c3ccc(OC(F)F)cn3)ccc2F)[C@H]1F

IC50 [16]: 9.6 nM
Compound: COc1ncc(C(=O)NC2CC2)c2c1C[C@]1(c3ccc(F)cc3F)N=C(N)SC[C@@H]1C2

IC50 [17]: 9.8 nM
IC50 [18]: 66 nM
IC50 [19]: 6.9 nM
Compound: COc1ccc(C(=O)Nc2ccc(F)c([C@]3(C)CC[C@@](C)(C#N)C(N)=N3)c2)nc1

Compound: Cc1cc(C#N)cnc1C(=O)Nc1ccc(F)c([C@]2(C)CS3(=O)=NCCCCC3(C)C(N)=N2)c1 (stereo partly drawn)
inhibition in vivo at 30 mg/kg [13]: 52%
IC50 [5]: 0.2 nM

IC50 [9]: 2 nM
Compound: CC1(c2cc(NC(=O)c3ccc(C#N)cn3)ccc2F)Cc2ncc(F)cc2C(N)=N1 (stereo not drawn)

IC50 [20]: 20.7 nM
Compound: C[C@]1(c2cc(NC(=O)c3ccc(C#N)cn3)ccc2F)N=C(N)OC2(COC2)[C@H]1F

IC50 [21]: 15.2 nM
IC50 [22]: 3.02 nM
IC50 [23]: 11.2 nM
Compound: NC1=N[C@](CF)(c2cc(NC(=O)c3cnc(Cl)cn3)cc(F)c2F)[C@H]2[C@@H](S1)C2(F)F

IC50 [9]: 1 nM
Compound: COC[C@H]1SC(N)=N[C@](C)(c2cc(NC(=O)c3ccc(C#N)cn3)ccc2F)[C@H]1F

IC50 [4]: 13.2 nM
IC50 [2]: 3.9 nM
Compound: Cn1cc2n(c1=O)C[C@@](C)(c1cc(NC(=O)c3ccc(C#N)cn3)ccc1F)N=C2N

efflux ratio [1]: 1.1
IC50 [2]: 6.23 nM
IC50 [3]: 0.19 nM
Compound: C[C@@]1(c2cc(NC(=O)c3cnc(OCF)cn3)ccc2F)C[C@@H](C(F)F)SC(N)=N1

IC50 [20]: 22.8 nM
Compound: C#C[C@]1(c2cc(NC(=O)c3ccc(C#N)cn3)ccc2F)N=C(N)O[C@@H]2C[C@@H]21

IC50 [9]: 0.391 nM
Compound: C[C@]1(c2cc(NC(=O)c3ccc(C#N)cn3)ccc2F)N=C(N)O[C@H]2[C@@H]1OCC2(F)F

IC50 [24]: 172 nM
Compound: COc1nc(N2C[C@H]3CSC(N)=N[C@@]3(c3ccns3)C2)nc(C)c1F

IC50 [25]: > 100000 nM
IC50 [23]: 6 nM
Compound: Cc1cc(Cl)cnc1C(=O)Nc1ccc2c(c1)[C@@]1(C)N=C(N)C(C)(C)S(=O)(=O)[C@@H]1CCO2

IC50 [6]: 8 nM
Compound: NC1=N[C@@]2(c3cccc(NC(=O)c4cnc(C(F)F)cn4)c3)CCO[C@H]2CS1

pKa [8]: 7.9
Compound: NC1=N[C@@]2(c3cc(CNCC(F)(F)F)c(F)cc3F)CO[C@@H](CF)C[C@H]2CS1

IC50 [5]: 22 nM
Compound: CN=S1(=O)C[C@@](C)(c2cc(-c3cc(-c4ncc(OC)cn4)no3)ccc2F)N=C(N)N1C (single isomer, unassigned)

Ki [11]: 9.1 nM
Ki [12]: 1 nM
Compound: CN1C(N)=N[C@](C)(c2cc(NC(=S)c3ccc(C#N)cn3)ccc2F)CS1(=O)=O

IC50 [7]: 182 nM
pKa [8]: 9
Compound: C[C@]1(c2cc(NC(=O)c3ccc(C#N)cn3)ccc2F)N=C(N)C[C@H]1C(F)(F)F

IC50 [24]: 0.9 nM
Compound: COc1cnc(C(=O)Nc2ccnc([C@]34CN(c5ncc(F)cn5)C[C@H]3CSC(N)=N4)c2)cn1

Ki [11]: 47 nM
Ki [12]: 303 nM
Compound: CN1C(=N)N[C@]2(C)c3cc(NC(=O)c4ccc(C#N)cn4)ccc3OCC[C@@H]2S1(=O)=O (relative stereo)

IC50 [23]: 0.64 nM
Compound: C#CCOc1cnc(C(=O)Nc2cc(F)c(F)c([C@@]3(CF)N=C(N)S[C@H]4C[C@H]43)c2)cn1

IC50 [21]: 1.6 nM
IC50 [22]: 13.2 nM
IC50 [23]: 3.7 nM
Compound: NC1=N[C@](CF)(c2cc(NC(=O)c3cnc(Cl)cn3)ccc2F)[C@@H]2C[C@]2(C(F)F)S1

IC50 [7]: 7080 nM
Compound: NC1=N[C@@]2(COc3ccc(NC(=O)c4cnc(OCC(F)(F)F)cn4)cc32)[C@H](C(F)(F)F)C1

IC50 [5]: 3.4 nM
Compound: C[C@@]1(c2nc(NC(=O)c3ccc(C#N)cn3)ccc2F)C[C@@H](C(F)(F)F)OC(N)=N1

IC50 [16]: 0.76 nM
Compound: COc1ncc(CC2CCOCC2)c2c1C[C@]1(c3ccc(F)cc3F)N=C(N)SC[C@@H]1C2

IC50 [5]: 49 nM
Compound: C[C@@]1(c2nc(NC(=O)c3ccc(C#N)cn3)ccc2F)CS2(=O)=NCCCCN2C(N)=N1 (stereo partly drawn)

Ki [11]: 22 nM
Ki [12]: 32 nM
Compound: CN1C[C@@H](c2cc(NC(=O)c3ccc(C#N)cn3)ccc2F)N=C(N)C(C)(C)S1(=O)=O

IC50 [5]: 2 nM
Compound: Cc1cc(C#N)cnc1C(=O)Nc1ccc(F)c([C@]2(C)CS3(=O)=NCCCCN3C(N)=N2)c1 (stereo partly drawn)

IC50 [5]: 0.99 nM
Compound: Cc1cc(C#N)cnc1C(=O)Nc1ccc(F)c([C@]2(C)CS(=O)(=NCC(F)(F)F)N(C)C(N)=N2)c1 (single isomer, unassigned)
